Laboratory results: US20240299321A1, “METHODS TO SENSITIZE CANCER CELLS AND STANDARDIZED SCREENING ASSAY FOR IMMUNOTHERAPY” (THE TRUSTEES OF INDIANA UNIVERSITY, priority 2020, published 2024)

Test system: EO771 (Luc+OVA+) tumor organoids
Assay: EO771 tumor organoid and OVA-specific CD8+ T cell co-culture cytotoxicity
Type: cell-based, mouse
Conditions: for outcome of combined 2D co-culture, tumor organoid co-culture and antigen presentation screens: 1 μM, 48 h treatment; for organoid dissociation / tumor cell death rates: co-culture with T cells
From the text: In accordance with the present disclosure a drug screen platform was used to identify epigenetic inhibitors that increase a cancer cell's sensitivity to CD8+ T-cell cytotoxicity. In one embodiment the drug screen platform is composed of breast tumor organoids and tumor-specific CD8+ T cells. A lentiviral vector expressing OVA was transduced to the Luc+EO771 cells. The resulting OVA+ cells were orthotopically transplanted to C57BL/6 mice to generate syngeneic mammary tumors. The tumors were harvested and dissociated to single cells for 2D culture and only the adherent cells were collected to generate tumor organoids. 2 ml of tumor organoid culture medium (2×10^5 cells per ml) were seeded into 6-well culture plate with ultra-low attachment surface. After 7-day culture, tumor organoids were filtered by cell strainers with nylon mesh between 70 and 150 μm. The tumor organoids with diameter between 70 and 150 μm were treated with drugs for 48 h in the matrigel-free medium. The treated tumor organoids were then co-cultured with the pre-activated and OVA-specific CD8+ T cells from OT-I mice in the breast organoid culture medium containing 10 ng ml-1 IL2 without matrigel for 24 h. The luciferase released from the EO771 cells was measured using a Dual-luciferase report assay system (Promega) on a BioTek Cytation5 imaging reader, to assess the T cell-mediated cytotoxicity effect.
Cytotoxicity of CD8+ T cells in the co-culture with tumor organoids We generated mouse EO771 (Luc+OVA+) cell line that presents OVA257-264 antigen (from chicken ovalbumin) and human MDA-MB-468 (NY-ESO-1+) cell line that presents NY-ESO-1 antigen for use in the T cell-mediated cytotoxicity assay. OVA-specific CD8+ T cells were isolated from the spleen of OT-I mouse that contains transgenic inserts of Tcra-V2 and Tcrb-V5 genes. The transgenic T cell receptor can recognize the ovalbumin peptide SIINFEKL (OVA257-264; SEQ ID NO: 55). Anti-NY-ESO-1 human CD8^+ T cells (CELLERO™) were used to recognize the NY-ESO-1+ MDA-MB-468 cells. Autologous human CD8+ T cells were isolated from patient tumor tissues and amplified in the DMEM/F12 medium supplemented with 10% FBS, 2 mM Ultraglutamine I, 1% penicillin/streptomycin and 10 ng mL-1 of human IL2 for 7 days. The CD8+ T cells were stimulated by the T-activator CD3/CD28 Dynabeads (Gibco, 11452D for mouse and 11131D for human) for 48 h prior to use for cytotoxicity assay. Mouse and human tumor organoids with diameter between 70 and 150 μm were collected and mixed with corresponding CD8+ T cells in DMEM/F12 medium supplemented with 10% FBS, 2 mM Ultraglutamine I, 1% penicillin/streptomycin and 10 ng mL-1 IL2 (Biolegend, mouse: 575402; human: 589102) at a ratio of organoids versus T cells at 1:200 in the microplates with ultra-low attachment surface. The cells were co-cultured for 24 h and subject to further analyses, such as optical and fluorescence imaging, luciferase assay or flow cytometry.
Epigenetic inhibitor screen on CD8+ T cell-mediated cytotoxicity: The epigenetic inhibitor library (Cayman chemical, Cat #11071, Batch #0522205, data not shown) was used for drug screen. Three different screen methods were conducted. In tumor organoid-T cell co-culture, EO771 (Luc+OVA+) tumor organoids with diameter between 70 and 150 μm were seeded with 100 organoids/well and treated with 1 μM of drug for 48 h. The tumor organoids were centrifuged at 100 rcf for 5 min. The medium were replaced with fresh T cell culture medium containing OVA-specific T cells. A total of 20,000 T cells were added in each well. After co-culture for 24 h, cytotoxicity of tumor cells was measured using a Dual-luciferase report 1000 assay system (Promega) in which luciferase expressed exclusively in the live EO771 (Luc+OVA+) cells was detected by a BioTek Cytation5 imaging reader. Low levels of luciferase from survived tumor cells refer to high cytotoxicity in the co-culture. […]

Row | Structure (SMILES) | outcome of combined 2D co-culture, tumor organoid co-culture and antigen presentation screens | organoid dissociation | tumor cell death rates | promotion of T cell-mediated cytotoxicity after knockdown of B2M (shB2M OVA+ EO771 cells, FIG. 4G)
1 | Nc1ccccc1NC(=O)CCCCCCC(=O)Nc1ccccc1 [BML-210] | increase the antigenicity of tumor cells and enhance their response to cytotoxic T cells | greater organoid dissociation | higher tumor cell death rates | completely abolished
2 | C#Cc1cccc(Nc2ncnc3cc(OC)c(OCCCCCCC(=O)NO)cc23)c1 [CUDC-101] | increase the antigenicity of tumor cells and enhance their response to cytotoxic T cells | greater organoid dissociation | higher tumor cell death rates | 
3 | c1ccc([C@@H]2C[C@H]2NC2CCNCC2)cc1 [GSK-LSD1] | increase the antigenicity of tumor cells and enhance their response to cytotoxic T cells | greater organoid dissociation | higher tumor cell death rates | 
